Test results as given in patent publication US20240180485A1, “METHOD AND DEVICE FOR INDUCING HYPOMETABOLIC STATE IN SUBJECT WITH DISEASE” (UNIVERSITY OF TSUKUBA, priority 2021, published 2024).

Experiments:
[1] = system: neurons in AVPe, MPA, and Pe; assay: Fos immunostaining after CNO IP in Q-hM3D mice; format: in vivo, mouse; conditions: 90 minutes after CNO IP
Experimental: Each mouse was deeply anesthetized with isoflurane, transcardially perfused with 10% sucrose in water, and subsequently perfused with ice-cooled 4% paraformaldehyde (4% PFA) in a 0.1 M phosphate buffer having a pH of 7.4, and the brain was removed. The brain was left in 4% PFA overnight at 4° ° C., then fixed, incubated overnight at 4° C. in 30% sucrose in a 0.1 M phosphate buffered saline (PBS) having a pH of 7.4, immersed in a Tissuue-Tek O.C.T. compound (Sakura) in a cryomold, and frozen at −80° C. until sectioned. The brain was sliced coronally by using a cryostat (CM1860, Leica) every 50 μm into four equal series, collected in a 6-well plate filled with ice-cooled PBS, and washed three times with PBS at room temperature (RT). Unless otherwise specified, the following incubation step was carried out with gently shaking on an orbital shaker. Brain sections were incubated for 1 hour at room temperature in 1% Triton X-100 in PBS. […]
The primary antibodies used in the present study were rabbit anti-cFos (1:4000, ABE457, Millipore), goat anti-mCherry (1:15000, AB0040-200, SICGEN), rat anti-GFP (1:5000, 04404-84, NACALAI TESQUE), mouse anti-TH (1:1000, sc-25269, Santa Cruz Biotechnology), mouse anti-orexin A (1:200, sc-80263, Santa Cruz Biotechnology), and rabbit anti-MCH (1:2000, M8440, SIGMA). […] Brain regions were determined by using mouse brain maps from Paxinos and Franklin^36.

[2] = system: hM3Dq-mCherry-expressing neurons; assay: Current-clamp recording of hypothalamus slices with bath-applied CNO; format: cell-based, mouse; conditions: bath application; CNO 1 μM; 30° C.
Experimental: The mice were decapitated under deep anesthesia using isoflurane (Pfizer). The brains were extracted and cooled in an ice-cold cutting solution containing the following (mM): 125 mM choline chloride, 25 mM NaHCO3, 10 mM D(+)-glucose, 7 mM MgCl2, 2.5 mM KCl, 1.25 mM NaH2PO4, and 0.5 mM CaCl2 bubbled with O2 (95%) and CO2 (5%). Horizontal brain slices (250 μm in thickness) including the hypothalamus were prepared by using a vibratome (VT1200S, Leica) and were maintained at room temperature for 1 hour in artificial CSF (ACSF) containing the following (mM): 125 mM NaCl, 26 mM NaHCO3, 10 mM D(+)-glucose, 2.5 mM KCl, 2 mM CaCl2), and 1 mM MgSO4 bubbled with O2 (95%) and CO2 (5%). The electrodes (5 to 8 MΩ) were filled with an internal solution containing the following (mM): 125 mM K-gluconate, 10 mM HEPES, 10 mM phosphocreatine, 0.05 mM tolbutamide, 4 mM NaCl, 4 mM ATP, 2 mM MgCl2, 0.4 mM GTP, and 0.2 mM EGTA, pH 7.3, adjusted with KOH). Firing of hM3Dq-mCherry-expressing neurons was recorded in current-clamp mode at a temperature of 30° C. CNO (1 μM) was bath-applied, and the effect was investigated. The membrane potential and data acquisition were controlled by using a combination of a MultiClamp 700B amplifier, a Digidata 1440A A/D converter, and Clampex 10.3 software (Molecular Devices). […]

Q-hM3D mice [3] = conditions: mouse, in vivo
Excerpt: In order to evaluate the thermoregulatory system under QIH and normal conditions, the heat loss and the heat production of the animals were described by a hierarchical multilayer model (FIGS. 3c to 3k, code folder QIH_GTRH). Three parameters of G, TR, and H under two metabolic conditions, that is, normal and QIH, were estimated from a metabolically stable state of the animals at various TAs. […] In brief, a linear model consisting of the controllable parameter TA and the observable parameters TB and VO2 was fitted to the experimental results for both TB and VO2 by using TA as a predictor having normally distributed noise. Next, G, TR, and H were estimated by using the posterior distributions of the slope and the intercept coefficient of each model. In this analysis, the prior probability density function of the standard deviation of noise was a standard half-normal distribution, and the other parameters used a positive region of a uniform distribution except for the intercept coefficient of TB, which used a uniform distribution due to negative values.
In order to evaluate this, feature analysis of the thermoregulatory system of mice during QIH was carried out. […] Q-hM3D mice were prepared, and TB and VO2 were recorded during QIH at various TAs (8, 12, 16, 20, 24, 28, and 32° C.) (FIG. 3a). […]

[4] = system: AVPe/MPA including Q-neurons; conditions: AAV10-CaMKIIα-hM3Dq-mCherry injected into AVPe/MPA; cited from earlier work
[5] = system: Qrfp-iCre; Rosa26^dreaddm3 mice; assay: Thermographic surface body temperature and motor activity after CNO in Qrfp-iCre; Rosa26^dreaddm3 mice; format: in vivo, mouse
Excerpt: For thermographic analysis, the mice were placed in an experimental cage (25×15×10 cm) and monitored by using an infrared thermal imaging camera (InfReC R500 EX; NIPPON AVIONICS) placed 30 cm above the cage floor. In order to clearly detect the surface temperature, the dorsal hair was removed by using hair clippers one day before the start of the experiment. Thermograms of DREADD and optogenetic experiments were collected at 0.5 Hz and 1 Hz, respectively, and analyzed by using the InfReC Analyzer NS9500 Professional software (NIPPON AVIONICS). The highest temperature in one frame was used as TS of the animal (FIG. 1d).
The pyroglutamylated RFamide peptide (QRFP), a hypothalamic neuropeptide, was originally discovered through a bioinformatics approach aimed at the discovery of a new RFamide peptide^9,10. The Qrfp peptide was also identified and purified from the rat brain as an endogenous ligand for the orphan G-protein-coupled receptor hGPR103^11. The prepro-Qrfp mRNA is localized only in the hypothalamus and is distributed in the periventricular nucleus (Pe), the lateral hypothalamus (LHA), and the tuber cinereum (TC) 11. Orfp has previously been implicated in food intake, sympathetic regulation, and anxiety^11,12. The inventors prepared mice (Qrfp-iCre mice) having codon-improved Cre recombinase (iCre) knocked-in into the Qrfp gene. In order to obtain mice (Qrfp-iCre; Rosa26^dreaddm3 mice) in which hM3Dq-mCherry was expressed only in iCre-expressing neurons, the inventors crossbred […] with Rosa26^dreadm3 mice having an upstream floxed transcription arrest element inserted at the Rosa26 gene locus. […] The decrease in Ts started about 5 minutes after CNO administration and lasted for approximately 12 hours. After that, the mice spontaneously recovered from the hypothermic state without external rewarming.

Q-hM3D mice [6] = assay: Body temperature, oxygen consumption, heart rate and respiration after CNO IP in Q-hM3D mice; format: in vivo, mouse
[7] = centrally administered; cited from earlier work
wild-type mice = assay: Metabolic state induced by IP CHA in wild-type mice
Experimental: The adenosinea receptor agonist CHA (N6-cyclohexyladenosine, Sigma-Aldrich, C9901) was dissolved in physiological saline at a concentration of 250 μg/mL, and the resulting solution was intraperitoneally administered to each mouse at a dose of 2.5 mg/kg.
In addition, the metabolic state induced by systemic delivery of the adenosine A1AR agonist (6)N-cyclohexyladenosine (CHA), which is used to induce a hypothermic state, was also investigated^19.

[8] = surface body temperature, thermographic camera

C[N+]1([O-])CCN(C2=Nc3cc(Cl)ccc3Nc3ccccc32)CC1 [CNO, clozapine N-oxide]
in vivo excitation of neurons (anti-Fos and anti-mCherry) [1]: numerous mCherry and Fos double-positive neurons
excitation of mCherry-positive neurons [2]: strongly excited
difference between the medians of TR, normal vs QIH (Q-hM3D mice [3]): 8.41 °C
reduction in the median of H in QIH from the normal state (Q-hM3D mice [3]): 95.3%
induction of QIH in rats [4]: induced QIH with hypothermia and hypometabolism
hypothermia accompanying the CNO-induced immobile state ([5]; FIG. 1b): remarkable and sustained hypothermia
start of severe and sustained immobile state after injection ([5]; intraperitoneal (IP) injection): about 30 minutes
duration of decrease in Ts [5, 8]: approximately 12 hours
start of decrease in Ts after administration [5, 8]: about 5 minutes
induction of QIH (Q-hM3D mice [6]; CNO injection, before in situ hybridization): effectively induced QIH
QIH after repeated injections in the same mice (Q-hM3D mice [6]; FIG. 1h): reproducible
duration of very low TB state (below 30° C.) (Q-hM3D mice [6]; IP injection, FIG. 1d): ≥ 48 h
duration of QIH with a TB of less than 30° C. (Q-hM3D mice [6]; TA=20° C., one dose 1 mg/kg): ≥ 48 h
time for VO2 to fully return to normal (Q-hM3D mice [6]; TA=20° C., one dose 1 mg/kg): about 1 week
hypothermia compared with Qrfp-iCre; Rosa26^dreaddm3 mice (Q-hM3D mice [6]; mouse, in vivo, ip): deeper, longer-lasting hypothermia
O2 consumption rate (VO2) in the CNO-induced hypothermic state (Q-hM3D mice [6]; respiratory gas analysis, FIG. 1g): remarkable decrease
action of CNO on TB with TeTxLC co-expression (Q-hM3D mice [6]; simultaneous injection of AAV2/9-hSyn-DIO-TeTxLC-eYFP and AAV10-EF1α-DIO-hM3Dq-mCherry): completely eliminated
VO2 (Q-hM3D mice [6]; two hours after CNO injection, 3.60 before): 1.17 mL/g/h
respiratory rate (Q-hM3D mice [6]; two hours after CNO injection, 333 before, tidal volume below detection limit): undetectable
heart rate (Q-hM3D mice [6]; two hours after CNO injection, 758 two hours before, average of n=3): 215 beats/min

pyroglutamylated RFamide peptide (QDEGSEATGFLPAAGEKTSGPLGNLAEELNGYSRKKGGFSFRF; QRF-amide; UniProt P83859 91-133, looked up) [Qrfp, hypothalamic neuropeptide, endogenous ligand for the GPR103 receptor]
effect on sympathetic nerve outflow, heart rate and blood pressure [7]: increases sympathetic nerve outflow and increases the heart rate and the blood pressure

OC[C@H]1O[C@@H](n2cnc3c(NC4CCCCC4)ncnc32)[C@H](O)[C@@H]1O [CHA, N6-cyclohexyladenosine]
TB and VO2 when TA was set to 12° C. (wild-type mice; IP 2.5 mg/kg, CHA-induced hypothermia): further decreased
reaction to low TA (increase in VO2, posture, shivering) (wild-type mice; IP 2.5 mg/kg, TA 12° C.): did not react to a low TA
induction of hypothermic/hypometabolic state (wild-type mice; IP injection 2.5 mg/kg): effectively induced a hypothermic/hypometabolic state
